Results taken from ChEMBL document CHEMBL6083203, “Discovery and optimisation of pyrazolo[1,5-a]pyrimidines as aryl hydrocarbon receptor antagonists” (RSC Med Chem, 2024).

molecular target: T1, Aryl hydrocarbon receptor (Mus musculus, UniProt P30561); experiment: Antagonist activity at AhR receptor in TCDD-stimulated mouse CD34-positive cell assessed as decrease in CYP1B1 mRNA expression; conditions: not given
T1 sequence (P30561 whole entry): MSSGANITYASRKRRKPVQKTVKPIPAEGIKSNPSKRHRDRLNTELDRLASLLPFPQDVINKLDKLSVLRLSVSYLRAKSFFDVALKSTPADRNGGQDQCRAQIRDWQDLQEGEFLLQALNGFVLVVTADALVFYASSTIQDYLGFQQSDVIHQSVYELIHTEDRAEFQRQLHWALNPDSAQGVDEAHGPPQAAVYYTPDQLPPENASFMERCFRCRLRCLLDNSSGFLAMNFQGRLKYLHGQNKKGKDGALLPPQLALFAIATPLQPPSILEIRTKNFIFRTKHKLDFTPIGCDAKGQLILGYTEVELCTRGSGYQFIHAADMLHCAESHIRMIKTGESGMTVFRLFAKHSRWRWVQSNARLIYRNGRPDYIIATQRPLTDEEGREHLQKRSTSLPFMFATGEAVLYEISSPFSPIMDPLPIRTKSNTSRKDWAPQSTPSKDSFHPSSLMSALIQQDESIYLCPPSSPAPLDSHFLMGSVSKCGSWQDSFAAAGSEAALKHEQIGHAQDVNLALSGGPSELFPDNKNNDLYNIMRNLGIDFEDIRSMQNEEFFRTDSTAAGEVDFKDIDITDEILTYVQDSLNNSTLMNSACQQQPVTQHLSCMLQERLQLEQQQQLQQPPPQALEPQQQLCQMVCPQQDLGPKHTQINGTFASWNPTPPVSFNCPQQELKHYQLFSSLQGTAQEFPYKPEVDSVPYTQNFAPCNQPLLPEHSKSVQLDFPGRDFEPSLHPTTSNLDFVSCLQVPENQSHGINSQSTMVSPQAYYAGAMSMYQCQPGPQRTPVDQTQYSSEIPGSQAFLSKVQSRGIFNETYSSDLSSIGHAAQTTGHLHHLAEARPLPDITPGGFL

Structure (SMILES)	IC50 [nM]
CC(C)n1cnc2c(NCCc3ccc(O)cc3)nc(-c3csc4ccccc34)nc21	127

molecular target: T2, Aryl hydrocarbon receptor (Homo sapiens, UniProt P35869); conditions: Huh-7, human, 20 h, read-out: Activity
T2 sequence (P35869 whole entry): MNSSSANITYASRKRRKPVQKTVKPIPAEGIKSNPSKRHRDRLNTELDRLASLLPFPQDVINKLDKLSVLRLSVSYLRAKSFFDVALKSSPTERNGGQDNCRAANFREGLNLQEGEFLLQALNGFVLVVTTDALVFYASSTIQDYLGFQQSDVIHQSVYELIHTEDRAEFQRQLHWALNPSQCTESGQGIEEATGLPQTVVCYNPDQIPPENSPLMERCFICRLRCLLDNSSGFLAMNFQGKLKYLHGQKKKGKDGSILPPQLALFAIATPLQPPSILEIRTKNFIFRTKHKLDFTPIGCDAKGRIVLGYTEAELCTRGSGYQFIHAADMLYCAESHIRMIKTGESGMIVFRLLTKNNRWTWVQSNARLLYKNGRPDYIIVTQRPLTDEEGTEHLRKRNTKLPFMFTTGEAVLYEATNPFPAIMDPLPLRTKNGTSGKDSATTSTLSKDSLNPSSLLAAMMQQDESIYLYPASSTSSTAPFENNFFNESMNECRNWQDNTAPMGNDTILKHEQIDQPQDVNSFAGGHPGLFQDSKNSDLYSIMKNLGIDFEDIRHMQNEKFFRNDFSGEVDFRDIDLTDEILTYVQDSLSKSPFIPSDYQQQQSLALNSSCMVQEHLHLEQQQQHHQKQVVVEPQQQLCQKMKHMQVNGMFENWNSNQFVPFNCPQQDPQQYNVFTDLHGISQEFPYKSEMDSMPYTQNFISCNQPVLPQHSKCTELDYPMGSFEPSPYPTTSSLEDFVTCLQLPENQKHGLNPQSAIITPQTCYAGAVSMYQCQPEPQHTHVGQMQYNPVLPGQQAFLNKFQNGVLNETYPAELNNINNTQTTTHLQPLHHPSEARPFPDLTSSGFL
Description: Antagonist activity at AHR receptor in human Huh-7 cells transfected with CYP1A1 regulated luciferase reporter gene assessed as inhibition of TCDD-induced receptor activation at 25 uM incubated for 20 hrs by dual luciferase assay relative to control

Structure (SMILES)	inhibition at 25 µM [%]
NC(=O)C1CN(C(=O)c2cc(-c3ccc(Cl)cc3)nn2-c2ccccc2)c2ccccc2O1 (configuration not stated)	23.6
C=CCn1c(SC(C)C(=O)NC(N)=O)nnc1-c1cc2c(s1)CCC(C(C)(C)C)C2 (configuration not stated)	21

molecular target: T2, Aryl hydrocarbon receptor; conditions: Huh-7, human, 20 h, read-out: Activity; remark: another data set of the same source
Description: Antagonist activity at AHR receptor in human Huh-7 cells transfected with CYP1A1 regulated luciferase reporter gene assessed as inhibition of receptor activation at 25 uM incubated for 20 hrs by dual luciferase assay relative to control

Structure (SMILES)	inhibition at 25 µM [%]
NC(=O)C1CN(C(=O)c2cc(-c3ccc(Cl)cc3)nn2-c2ccccc2)c2ccccc2O1 (configuration not stated)	28
C=CCn1c(SC(C)C(=O)NC(N)=O)nnc1-c1cc2c(s1)CCC(C(C)(C)C)C2 (configuration not stated)	1.4

molecular target: T2, Aryl hydrocarbon receptor; conditions: not given

IC50 [nM]	Structure (SMILES)
121	c1ccc(-c2cc(Nc3cnc[nH]3)n3ncc(-c4ccccc4)c3n2)cc1
320	COc1ccccc1-c1cnn2c(NCCOCCO)cc(-c3ccccc3)nc12
396	OCCOCCNc1cc(-c2ccccc2)nc2c(-c3ccccc3OC(F)(F)F)cnn12
189	Cc1ccc(-c2cc(NCCOCCO)n3ncc(-c4ccccc4)c3n2)cc1

Continued, compound first:

Structure (SMILES)	IC50 [nM]
CC(C)(C)c1cccc(-c2cnn3c(NCCOCCO)cc(-c4ccccc4)nc23)c1	29500
COC(=O)c1ccccc1-c1cnn2c(NCCOCCO)cc(-c3ccccc3)nc12	359
CS(=O)(=O)Nc1ccccc1-c1cnn2c(NCCOCCO)cc(-c3ccccc3)nc12	654
